Test results reported in patent publication US6537986B2, “Oxazolidinone antibacterial agents having a thiocarbonyl funtionality” (Pharmacia & Upjohn Company, priority 1997, dated 2003).
≈ marks a conversion by molar mass, not a printed value. Where two headings read alike, the source gives them in different places.

Legend:
[1] = test system: Haemophilus influenzae (HINF 30063); experiment: MIC, standard agar dilution method; format: cell-based; settings: Table II, Mueller Hinton agar, incubated overnight at 35° C.; for MIC: Haemophilus influenzae
Method: (§1) MIC Test Method The in vitro MICs of test compounds were determined by a standard agar dilution method. […] Serial 2-fold dilutions of each sample are made using 1.0 ml aliquots of sterile distilled water. To each 1.0 ml aliquot of drug is added 9 ml of molten Mueller Hinton agar medium. The drug-supplemented agar is mixed, poured into 15×100 mm petri dishes, and allowed to solidify and dry prior to inoculation. Vials of each of the test organisms are maintained frozen in the vapor phase of a liquid nitrogen freezer. Test cultures are grown overnight at 35° C. on the medium appropriate for the organism. Colonies are harvested with a sterile swab, and cell suspensions are prepared in Trypticase Soy broth (TSB) to equal the turbidity of a 0.5 McFarland standard. A 1:20 dilution of each suspension is made in TSB. […] The plates are incubated overnight at 35° C. Following incubation the Minimum Inhibitory Concentration (MIC μg/ml), the lowest concentration of drug that inhibits visible growth of the organism, is read and recorded.

[2] = test system: E. Faecium (EFAE 12712); experiment: MIC, standard agar dilution method; format: cell-based; settings: for MIC: Enterococcus faecium, read-out: EFAE 12712 MIC
Method: as §1

[3] = test system: S. pneumoniae (SPNE 9912); experiment: MIC, standard agar dilution method; format: cell-based; settings: Table II, Mueller Hinton agar, incubated overnight at 35° C.; for MIC: Streptococcus pneumoniae, read-out: SPNE 9912 MIC
Method: as §1

[4] = test system: S. pyogenes (SPYO 152); experiment: MIC, standard agar dilution method; format: cell-based; settings: Table II, Mueller Hinton agar, incubated overnight at 35° C.; for MIC: Streptococcus pyogenes, read-out: SPYO 152 MIC
Method: as §1

[5] = test system: S. epidermidis (SEPI 30593); experiment: MIC, standard agar dilution method; format: cell-based; settings: Table II, Mueller Hinton agar, incubated overnight at 35° C.; for MIC: Staphylococcus epidermidis
Method: as §1

[6] = test system: Moraxella catarrhalis (MCAT 30610); experiment: MIC, standard agar dilution method; format: cell-based; settings: Table II, Mueller Hinton agar, incubated overnight at 35° C.; for MIC: Moraxella catarrhalis
Method: as §1

[7] = test system: S. aureus (SAUR 9213); experiment: MIC, standard agar dilution method; format: cell-based; settings: Table II, Mueller Hinton agar, incubated overnight at 35° C.; for MIC: Staphylococcus aureus, read-out: SAUR 9213 MIC
Method: as §1

[8] = test system: Enterococcus faecalis (EFAE 9217); experiment: MIC, standard agar dilution method; format: cell-based; settings: Table II, key: Enterococcus faecalis, Mueller Hinton agar, incubated overnight at 35° C.; for MIC: read-out: EFAE 9217 MIC
Method: as §1

[9] = Table II, key: E. Faecium, agar dilution, Mueller Hinton agar, incubated overnight at 35° C.

MIC [1] [µg/mL]	MIC [2] [µg/mL]	MIC [3] [µg/mL]	MIC [4] [µg/mL]	MIC [5] [µg/mL]	MIC [6] [µg/mL]	MIC [7] [µg/mL]	MIC [8] [µg/mL]	MIC [2, 9] [µg/mL]	melting point	HINF 30063 MIC [1] [µg/mL]	EFAE 12712 MIC [2, 9] [µg/mL]	SPNE 9912 MIC [3] [µg/mL]	SPYO 152 MIC [4] [µg/mL]	SEPI 30593 MIC [5] [µg/mL]	MCAT 30610 MIC [6] [µg/mL]	SAUR 9213 MIC [7] [µg/mL]	EFAE 9217 MIC [8] [µg/mL]	SMILES
										64	32	16	16	16	32	32	32	N#CCC(=S)NC[C@H]1CN(c2ccc(N3CCOCC3)c(F)c2)C(=O)O1 [Example 19, (S)-N-[[3-[3-Fluoro-4-(4-morpholinyl)phenyl]-2-oxo-5-10 oxazolidinyl]methyl]-α-eyanothioacetamnide]
4 (≈ 11.9 µM)		< 0.125	0.25 (≈ 0.745 µM)	0.5 (≈ 1.49 µM)	2 (≈ 5.96 µM)	0.5 (≈ 1.49 µM)	1 (≈ 2.98 µM)	1 (≈ 2.98 µM)										CC(=S)NC[C@H]1CN(c2ccc(-n3cncn3)c(F)c2)C(=O)O1 [Example 22]
										2	0.5	0.25	0.25	0.25	1	0.5	0.5	CC(=S)NC[C@H]1CN(c2ccc(N3CCS(=O)(=O)CC3)c(F)c2)C(=O)O1 [Example 28, (S)-N-[[3-[3-Fluoro-4-(4-thiomorpholinyl)phenyl]-2-oxo-5-oxazolidinyl]methyl]thio-acetamide, thiomorpholine S, S-dioxide]
										>16	2	0.5	1	1	4	2	2	CSC(=S)NC[C@H]1CN(c2ccc(N3CCOCC3)c(F)c2)C(=O)O1 [Example 34]
									208 to 209 °C									COC(=S)NC[C@H]1CN(c2ccc(N3CC[S+]([O-])CC3)c(F)c2)C(=O)O1 [Example 100, (S)-N-[[3-[3-Fluoro-4-(4-thiomorpholinyl)phenyl]-2-oxo-5-oxazolidinyl]methyl]-O-methylthiocarbamate, thiomorpholine S-oxide]
									129 to 131 °C									CC(=S)NC[C@H]1CN(c2ccc(N3CCCSCC3)cc2)C(=O)O1 [Example 534, (5S)-N-[[3-[4-(Tetrahydro-1,4-thiazepin-4(5H)-yl)phenyl]-2-oxo-5-oxazolidinyl]methyl]thioacetamide]

Second part, the compound before the results:

SMILES	MIC [1] [µg/mL]	MIC [2] [µg/mL]	MIC [3] [µg/mL]	MIC [4] [µg/mL]	MIC [5] [µg/mL]	MIC [6] [µg/mL]	MIC [7] [µg/mL]	MIC [8] [µg/mL]	MIC [2, 9] [µg/mL]	melting point	HINF 30063 MIC [1] [µg/mL]	EFAE 12712 MIC [2, 9] [µg/mL]	SPNE 9912 MIC [3] [µg/mL]	SPYO 152 MIC [4] [µg/mL]	SEPI 30593 MIC [5] [µg/mL]	MCAT 30610 MIC [6] [µg/mL]	SAUR 9213 MIC [7] [µg/mL]	EFAE 9217 MIC [8] [µg/mL]
CC(=S)NC[C@H]1CN(c2ccc([C@H]3CC[S@@+]([O-])CC3)c(F)c2)C(=O)O1 [Example 7, (S)-cis-N-[[3-[3-Fluoro-4-(tetrahydro-1-oxido-2H-thiopyran-4-yl)phenyl]-2-oxo-5-oxazolidinyl]methyl]ethanethioamide]	4 (≈ 10.4 µM)	0.5 (≈ 1.3 µM)	< 0.125	0.25 (≈ 0.65 µM)	0.25 (≈ 0.65 µM)	1 (≈ 2.6 µM)	0.5 (≈ 1.3 µM)	0.5 (≈ 1.3 µM)										
NC(=S)NC[C@H]1CN(c2ccc([C@H]3CC[S@@+]([O-])CC3)c(F)c2)C(=O)O1 [Example 8, (S)-cis-[[3-[3-Fluoro-4-(tetrahydro-1-oxido-2H-thiopyran-4-yl)phenyl]-2-oxo-5-oxazolidinyl]methyl]thiourea]	4 (≈ 10.4 µM)		< 0.125	0.25 (≈ 0.649 µM)	1 (≈ 2.59 µM)	2 (≈ 5.19 µM)	2 (≈ 5.19 µM)	1 (≈ 2.59 µM)	0.5 (≈ 1.3 µM)									
CC(=S)NC[C@H]1CN(c2ccc([C@H]3CC[S@+]([O-])CC3)c(F)c2)C(=O)O1 [Example 9, (S)-trans-N-[[3-[3-Fluoro-4-(tetrahydro-1-oxido-2H-thiopyran-4-yl)phenyl]-2-oxo-5-oxazolidinyl]methyl]ethanethioamide]	2 (≈ 5.2 µM)		< 0.125	< 0.125	0.25 (≈ 0.65 µM)	0.5 (≈ 1.3 µM)	0.5 (≈ 1.3 µM)	0.25 (≈ 0.65 µM)	0.25 (≈ 0.65 µM)									
NC(=S)NC[C@H]1CN(c2ccc(C3CC[S+]([O-])CC3)c(F)c2)C(=O)O1 (stereo partly drawn) [Example 10, (S)-trans-[[3-[3-Fluoro-4-(tetrahydro-1-oxido-2H-thiopyran4-yl)phenyl]-2-oxo-5-oxazolidinyl]methyl]thiourea]	2 (≈ 5.19 µM)		< 0.125	0.25 (≈ 0.649 µM)	1 (≈ 2.59 µM)	1 (≈ 2.59 µM)	2 (≈ 5.19 µM)	1 (≈ 2.59 µM)	0.5 (≈ 1.3 µM)									
CC(=S)NC[C@H]1CN(c2ccc(C3CCS(=O)(=O)CC3)c(F)c2)C(=O)O1 [Example 11, (S)-N-[[3-[3-Fluoro-4-(tetrahydro-1,1-dioxido-2H-thiopyran-4-yl)phenyl]-2-oxo-5-oxazolidinyl]methyl]ethanethioamide]	2 (≈ 4.99 µM)		< 0.125	0.25 (≈ 0.624 µM)	0.25 (≈ 0.624 µM)	1 (≈ 2.5 µM)	0.25 (≈ 0.624 µM)	0.25 (≈ 0.624 µM)	0.25 (≈ 0.624 µM)									
NC(=S)NC[C@H]1CN(c2ccc(C3CCS(=O)(=O)CC3)c(F)c2)C(=O)O1 [Example 12, (S)-N-[[3-[3-Fluoro-4-(tetrahydro-1,1-dioxido-2H-thiopyran-4-yl)phenyl]-2-oxo-5-oxazolidinyl]methyl]thiourea]	1 (≈ 2.49 µM)		< 0.125	< 0.125	0.5 (≈ 1.25 µM)	0.5 (≈ 1.25 µM)	1 (≈ 2.49 µM)	0.5 (≈ 1.25 µM)	0.25 (≈ 0.623 µM)									
O=C1O[C@@H](CNC=S)CN1c1ccc(N2CCOCC2)c(F)c1 [Example 13, (S)-N-[[3-[3-Fluoro-4-(4-morpholinyl)phenyl]-2-oxo-5-oxazolidinyl]methyl]-thioformamide]	> 16		0.5 (≈ 1.47 µM)	1 (≈ 2.95 µM)	1 (≈ 2.95 µM)	8 (≈ 23.6 µM)	1 (≈ 2.95 µM)	2 (≈ 5.89 µM)	2 (≈ 5.89 µM)	150 to 155 °C (dec.)								
O=C1O[C@@H](CNC(=S)CCl)CN1c1ccc(N2CCOCC2)c(F)c1 [Example 15, (S)-N-[[3-[3-Fluoro-4-(4-morpholinyl)phenyl]-2-oxo-5-oxrazolidinyl]methyl]-2-chlorotlioacetamide]	> 64		4 (≈ 10.3 µM)	8 (≈ 20.6 µM)	16 (≈ 41.3 µM)	64 (≈ 165 µM)	32 (≈ 82.5 µM)	32 (≈ 82.5 µM)	32 (≈ 82.5 µM)									
COC(=S)NC[C@H]1CN(c2ccc(N3CCOCC3)c(F)c2)C(=O)O1 [Example 35]											16	1	0.25	0.5	0.5	2	1	1
